This note sets out measurements from patent US7786046B2, “Benzoyl-substituted serineamides” (BASF Aktiengesellschaft, priority 2005, dated 2010).

Usually melting point stands for the temperature of the solid-liquid transition.

The molecule `CNC(=O)C(NC(=O)c1ccc(F)cc1C(F)(F)F)C(O)C(F)(F)F` (racemic) [Compound 3.1, 4-Fluoro-N-(3,3,3-trifluoro-2-hydroxy-1-methylcarbamoylpropyl)-2-trifluoromethylbenzamide] gave a melting point of 212 °C.
As for `C=CC(O)C(NC(=O)c1ccc(F)cc1C(F)(F)F)C(=O)NC` (racemic) [Compound 3.3, N-(2-Hydroxy-1-methylcarbamoylbut-3-enyl)-4-fluoro-2-trifluoromethylbenzamide], the figure is 163 °C; as for `CNC(=O)C(NC(=O)c1ccc(F)cc1C(F)(F)F)C(O)/C(Cl)=C/c1ccccc1` (racemic) [Compound 3.7, N-(3-Chloro-2-hydroxy-1-methylcarbamoyl-4-phenylbut-3-enyl)-4-fluoro-2-trifluoromethylbenzamide], 140 °C.
As for `CNC(=O)C(NC(=O)c1ccc(F)cc1C(F)(F)F)C(O)CO` (stereo not shown) [Compound 3.8, 2-(4-Fluoro-2-trifluoromethylbenzoylamino)-3,4-dihydroxy-N-methylbutyramide], the figure is 163 °C.
